Measured values from patent US8067470B2, “Linoleic acid preparations for the topical treatment of male and female pattern androgenetic alopecia, age-related alopecia, and keratosis pilaris” (priority 2008, dated 2011).

Columns and labels:
balding scalp = experiment: observation of balding scalp in a person treated with 13-cis-retinoic acid for cystic acne; format: in vivo, human; conditions: person treated for five months for cystic acne
Text: Linoleic acid has been proven in vitro to prevent growth of P. acnes in culture at concentrations similar to the normal level found in follicles not influenced by DHT stimulation of oil production. […] 8 Leyden, James J. M D et al., “Qualitative and Quantitative Changes in Cutaneous Bacteria Associated with Systemic Isotretinoin Therapy for Acne Conglobata”, Journal of Investigative Dermatology, Vol. 86, 390-393, 1986.

P. acnes [1] = conditions: parallel to reduction of sebaceous gland oil production; cited from earlier work
male pattern AGA = conditions: cited from earlier work
P. acnes [2] = conditions: prior art of this inventor; cited from earlier work
keratosis pilaris = experiment: topical linoleic acid oil in patients with keratosis pilaris; format: in vivo, human; conditions: in the form of an oil, more than 20 patients
Text: In pre-pubertal children prior to hormonal stimulation of facial oil production, it can be seen transiently on the cheeks, typically the least oily part of the face. […] The histology is reminiscent of the intra-follicular hyperkeratosis and low-level microinflammation seen in AGA follicles, except that AGA scalp follicles are larger and have large sebaceous glands opening into them. It is likely that localized linoleic acid deficiency with resultant aberrations in keratinization and in inflammation, due to permissive changes in microflora such as P. acnes and yeasts, is its etiology. Topical linoleic acid preparations would therefore be a logical approach to the treatment of the condition.

For `CC1=C(/C=C/C(C)=C/C=C/C(C)=C\C(=O)O)C(C)(C)CCC1` [13-cis-retinoic acid], the “terminal (full sized) hair growth in balding scalp” value (balding scalp) is listed as “increased terminal (full sized) hair growth” and the “P. acnes counts in acne-prone skin” value (P. acnes [1]) is listed as “parallel and equal reduction in P. acnes counts”.
In the case of `CC(C)(C)NC(=O)[C@H]1CC[C@H]2[C@@H]3CC[C@H]4NC(=O)C=C[C@]4(C)[C@H]3CC[C@]12C` [finasteride], the “recipients who lost less scalp hair” value (male pattern AGA; after one month, oral) is listed as 95%, the “recipients who began regrowing lost hairs” value (male pattern AGA; after six months, oral) is listed as 67% and the “balding recipients showing poor or no response” value (male pattern AGA; in vivo) is listed as no less than 35%.
In the case of `CCCCC/C=C\C/C=C\CCCCCCCC(=O)O` [linoleic acid], the “concentration required to completely inhibit growth of P. acnes in culture” value (P. acnes [2]) is given as 2% and the “roughness and redness of clinical keratosis pilaris” value (keratosis pilaris) is given as “amelioration of both the roughness and redness”.
